Converted amounts (≈) assume the structure as drawn.
Assay: Solubility of compound 1 in PBS pH 7.4 (filtration, UHPLC)
Assay type: physicochemical
Details: phosphate buffered saline; aqueous; PBS pH 7.4, 24 h mixing, UHPLC (method used for compound 1)
Method: software. All experiments were conducted with technical duplicates and at least three biological […]
1.4 Cytotoxicity assays – Rat skeletal myoblasts (L6)
The cytotoxicity of test compounds was evaluated using a rat skeletal myoblast (L6) cell line, as previously described3, but with minor modifications. Cells were grown in RPMI media supplemented with 10% (v/v) fetal calf serum. L6 cells at a seeding density of 2 x 10^4 cells/mL were incubated in microtiter plates overnight at 37 °C and 5 % CO2 until adherent. The following day, test compounds were added to the plates (3-fold serial dilutions), prior to incubation for 69 h. […] The plates were read using a SpectraMax (Gemini XS) fluorescence reader at an excitation wavelength of 536 nm and an emission wavelength of 588 nm. EC50 values were determined using SOFTmax Pro 5.2 analysis software. […]
The aqueous solubility of test compounds was measured using laser nephelometry. […] Triplicate aliquots were transferred to a flat-bottomed polystyrene plate which was immediately read on a NEPHELOstar nephelometer (BMG Lab Technologies). […]
Solubility of compound 1 was measured by a different method. […]
solution was then mixed for 24 h (rotary mixing, 900 rpm, 25°C) excluding light. […] The resulting filtrate was analysed for dissolved compound 1 using a truncated UHPLC methodology. […]

CC(C)CS(=O)(=O)N[C@H]1CC[C@H](Nc2nc(N)c(C(=O)c3c(F)cccc3F)s2)CC1 [Compound 1, N-((trans)-4-((4-Amino-5-(2,6-difluorobenzoyl)thiazol-2-yl)amino)cyclohexyl)-2-methylpropane-1-sulfonamide]
solubility at 24 h: 105 µM (≈ 49.6 µg/mL)

— publication PMC9014415, “Repositioning of a Diaminothiazole Series Confirmed to Target the Cyclin-Dependent Kinase CRK12 for Use in the Treatment of African Animal Trypanosomiasis” (Journal of Medicinal Chemistry, 2022)
